From patent US10414763B2 (CANCER RESEARCH TECHNOLOGY LIMITED, priority 2014, dated 2019)

molecular target: T1, full-length human PKCι (Homo sapiens, UniProt P41743); experiment: PKCι IC50 IMAP fluorescence polarisation assay, full-length enzyme, 150 μM ATP; format: biochemical; details: read-out: IC50 in IMAP assay against full length PKCi at 150 μM ATP
T1 construct: Recombinant, full-length human PKCι expressed in Sf21 insect cells is also commercially available; purchased EMD Millipore; host or cells: Sf21 insect cells (baculovirus)
T1 sequence (P41743 1-596): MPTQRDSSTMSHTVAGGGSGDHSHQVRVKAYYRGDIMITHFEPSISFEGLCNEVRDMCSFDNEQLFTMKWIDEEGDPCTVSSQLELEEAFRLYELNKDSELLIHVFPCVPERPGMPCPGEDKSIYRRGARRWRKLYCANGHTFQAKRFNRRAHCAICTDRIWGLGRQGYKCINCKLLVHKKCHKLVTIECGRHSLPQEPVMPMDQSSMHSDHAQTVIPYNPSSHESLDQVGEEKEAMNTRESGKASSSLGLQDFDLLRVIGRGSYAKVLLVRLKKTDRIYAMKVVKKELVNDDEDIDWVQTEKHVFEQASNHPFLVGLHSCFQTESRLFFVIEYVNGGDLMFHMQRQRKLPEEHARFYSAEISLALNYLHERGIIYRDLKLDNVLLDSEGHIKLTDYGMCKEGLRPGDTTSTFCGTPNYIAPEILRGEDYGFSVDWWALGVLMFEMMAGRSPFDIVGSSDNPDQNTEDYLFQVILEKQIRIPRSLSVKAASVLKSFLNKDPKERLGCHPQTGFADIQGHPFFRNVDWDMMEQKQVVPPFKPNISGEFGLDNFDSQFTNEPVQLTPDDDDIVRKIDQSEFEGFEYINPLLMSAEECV
Procedure, shortened: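 IMAP fluorescence polarisation kinase assay: 15 pM baculovirus-expressed human PKCiota with 100 nM FAM-pseudosubstrate peptide and 150 μM ATP, 1 h at 25 °C. IMAP detection reagent then 2 h at 25 °C before FP measurement. Inhibition referenced to no-compound and no-enzyme controls for IC50 fitting.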

Row | IC50 | SMILES
1 | < 100 nM | C[C@@H]1CNCC[C@@H]1Nc1nc(-c2ccnc(Nc3nc(F)cc(F)c3F)c2)nc2cncc(C3CCC3)c12 (racemic) [Example 295, {5-Cyclobutyl-2-[2-(3,4,6-trifluoro-pyridin-2-ylamino)-pyridin-4-yl]-pyrido[3,4-d]pyrimidin-4-yl}-(rac-(3R,4S)-3-methyl-piperidin-4-yl)-amine]
2 | < 100 nM | O[C@@H]1CNCC[C@H]1Nc1nc(-c2ccnc(Nc3nc(F)cc(F)c3F)c2)nc2cncc(C3CCC3)c12 (racemic) [Example 296, rac-(3R,4R)-4-{5-Cyclobutyl-2-[2-(3,4,6-trifluoro-pyridin-2-ylamino)-pyridin-4-yl]-pyrido[3,4-d]pyrimidin-4-ylamino}-piperidin-3-ol]
3 | 100 to 1000 nM | C[C@@H]1CNCC[C@@H]1Nc1nc(-c2ccnc(Nc3ncccc3F)c2)nc2cncc(C3CC3)c12 (racemic) [Example 299, {5-Cyclopropyl-2-[2-(3-fluoro-pyridin-2-ylamino)-pyridin-4-yl]-pyrido[3,4-d]pyrimidin-4-yl}-(rac-(3R,4S)-3-methyl-piperidin-4-yl)-amine]
4 | 100 to 1000 nM | C[C@@H]1CNCC[C@@H]1Nc1nc(-c2ccnc(Nc3ncc(F)cc3F)c2)nc2cncc(C3CC3)c12 (racemic) [Example 300, {5-Cyclopropyl-2-[2-(3,5-difluoro-pyridin-2-ylamino)-pyridiri-4-yl]-pyrido[3,4-d]pyrimidin-4-yl}-(rac-(3R,4S)-3-methyl-piperidin-4-yl)-amine]
5 | < 100 nM | C[C@@H]1CNCC[C@@H]1Nc1nc(-c2ccnc(Nc3nc(F)cc(F)c3F)c2)nc2cncc(C3CC3)c12 (racemic) [Example 301, {5-Cyclopropyl-2-[2-(3,4,6-trifluoro-pyridin-2-ylamino)-pyridin-4-yl]-pyrido[3,4-d]pyrimidin-4-yl}-(rac-(3R,4S)-3-methyl-piperidin-4-yl)-amine]
6 | < 100 nM | C[C@@H]1CNCC[C@H]1Nc1nc(-c2ccnc(Nc3ncccc3F)c2)nc2cncc(C3CC3)c12 (racemic) [Example 302, {5-Cyclopropyl-2-[2-(3-fluoro-pyridin-2-ylamino)-pyridin-4-yl]-pyrido[3,4-d]pyrimidin-4-yl}-(rac-(3R,4R)-3-methyl-piperidin-4-yl)-amine]
7 | < 100 nM | C[C@@H]1CNCC[C@H]1Nc1nc(-c2ccnc(Nc3ncc(F)cc3F)c2)nc2cncc(C3CC3)c12 (racemic) [Example 303, {5-Cyclopropyl-2-[2-(3,5-difluoro-pyridin-2-ylamino)-pyridin-4-yl]-pyrido[3,4-d]pyrimidin-4-yl}-(rac-(3R,4R)-3-methyl-piperidin-4-yl)-amine]
8 | < 100 nM | C[C@@H]1CNCC[C@H]1Nc1nc(-c2ccnc(Nc3nc(F)cc(F)c3F)c2)nc2cncc(C3CC3)c12 (racemic) [Example 304, {5-Cyclopropyl-2-[2-(3,4,6-trifluoro-pyridin-2-ylamino)-pyridin-4-yl]-pyrido[3,4-d]pyrimidin-4-yl}-(rac-(3R,4R)-3-methyl-piperidin-4-yl)-amine]
9 | 100 to 1000 nM | O[C@H]1CNCC[C@H]1Nc1nc(-c2ccnc(Nc3ncccc3F)c2)nc2cncc(C3CC3)c12 (racemic) [Example 305, rac-(3S,4R)-4-{5-Cyclopropyl-2-[2-(3-fluoro-pyridin-2-ylamino)-pyridin-4-yl]-pyrido[3,4-d]pyrimidin-4-ylamino}-piperidin-3-ol]
10 | 100 to 1000 nM | O[C@H]1CNCC[C@H]1Nc1nc(-c2ccnc(Nc3ncc(F)cc3F)c2)nc2cncc(C3CC3)c12 (racemic) [Example 306, rac-(3S,4R)-4-{5-Cyclopropyl-2-[2-(3,5-difluoro-pyridin-2-ylamino)-pyridin-4-yl]-pyrido[3,4-d]pyrimidin-4-ylamino}-piperidin-3-ol]
11 | < 100 nM | O[C@H]1CNCC[C@H]1Nc1nc(-c2ccnc(Nc3nc(F)cc(F)c3F)c2)nc2cncc(C3CC3)c12 (racemic) [Example 307, rac-(3S,4R)-4-{5-Cyclopropyl-2-[2-(3,4,6-trifluoro-pyridin-2-ylamino)-pyridin-4-yl]-pyrido[3,4-d]pyrimidin-4-ylamino}-piperidin-3-ol]
12 | 100 to 1000 nM | O[C@@H]1CNCC[C@H]1Nc1nc(-c2ccnc(Nc3ncccc3F)c2)nc2cncc(C3CC3)c12 (racemic) [Example 308, rac-(3R,4R)-4-{5-Cyclopropyl-2-[2-(3-fluoro-pyridin-2-ylamino)-pyridin-4-yl]-pyrido[3,4-d]pyrimidin-4-ylamino}-piperidin-3-ol]
13 | < 100 nM | O[C@@H]1CNCC[C@H]1Nc1nc(-c2ccnc(Nc3ncc(F)cc3F)c2)nc2cncc(C3CC3)c12 (racemic) [Example 309, rac-(3R,4R)-4-{5-Cyclopropyl-2-[2-(3,5-difluoro-pyridin-2-ylamino)-pyridin-4-yl]-pyrido[3,4-d]pyrimidin-4-ylamino}-piperidin-3-ol]
14 | < 100 nM | O[C@@H]1CNCC[C@H]1Nc1nc(-c2ccnc(Nc3nc(F)cc(F)c3F)c2)nc2cncc(C3CC3)c12 (racemic) [Example 310, rac-(3R,4R)-4-{5-Cyclopropyl-2-[2-(3,4,6-trifluoro-pyridin-2-ylamino)-pyridin-4-yl]-pyrido[3,4-d]pyrimidin-4-ylamino}-piperidin-3-ol]
15 | < 100 nM | Cc1nc(Nc2cc(-c3nc(N[C@H]4CCNC[C@H]4C)c4c(C5CCC5)cncc4n3)ccn2)ccc1C#N (racemic) [Example 311, 6-{4-[5-Cyclobutyl-4-(rac-(3R,4S)-3-methyl-piperidin-4-ylamino)-pyrido[3,4-d]pyrimidin-2-yl]-pyridin-2-ylamino}-2-methyl-nicotinonitrile]
16 | < 100 nM | Cc1nc(Nc2cc(-c3nc(N[C@@H]4CCNC[C@H]4C)c4c(C5CCC5)cncc4n3)ccn2)ccc1C#N (racemic) [Example 312, 6-{4-[5-Cyclobutyl-4-(rac-(3R,4R)-3-methyl-piperidin-4-ylamino)-pyrido[3,4-d]pyrimidin-2-yl]-pyridin-2-ylamino}-2-methyl-nicotinonitrile]
17 | < 100 nM | Cc1nc(Nc2cc(-c3nc(N[C@@H]4CCNC[C@@H]4O)c4c(C5CCC5)cncc4n3)ccn2)ccc1C#N (racemic) [Example 313, 6-{4-[5-Cyclobutyl-4-(rac-(3S,4R)-3-hydroxy-piperidin-4-ylamino)-pyrido[3,4-d]pyrimidin-2-yl]-pyridin-2-ylamino}-2-methyl-nicotinonitrile]
18 | < 100 nM | Cc1nc(Nc2cc(-c3nc(N[C@@H]4CCNC[C@H]4O)c4c(C5CCC5)cncc4n3)ccn2)ccc1C#N (racemic) [Example 314, 6-{4-[5-Cyclobutyl-4-(rac-(3R,4R)-3-hydroxy-piperidin-4-ylamino)-pyrido[3,4-d]pyrimidin-2-yl]-pyridin-2-ylamino}-2-methyl-nicotinonitrile]
19 | 100 to 1000 nM | N[C@@H]1CN(c2nc(-c3ccnc4[nH]c5ccccc5c34)nc3cncc(C4CCC4)c23)C[C@H]1O (racemic) [Example 343, rac-(3R,4R)-4-Amino-1-[5-cyclobutyl-2-(9H-pyrido[2,3-b]indol-4-yl)-pyrido[3,4-d]pyrimidin-4-yl]-pyrrolidin-3-ol]
20 | < 100 nM | O[C@H]1CNCC[C@H]1Nc1nc(-c2ccnc3[nH]c4ccccc4c23)nc2cncc(C3CCC3)c12 (racemic) [Example 344, rac-(3S,4R)-4-[5-Cyclobutyl-2-(9H-pyrido[2,3-b]indol-4-yl)-pyrido[3,4-d]pyrimidin-4-ylamino]-piperidin-3-ol]
21 | < 100 nM | O[C@@H]1CNCC[C@H]1Nc1nc(-c2ccnc3[nH]c4ccccc4c23)nc2cncc(C3CCC3)c12 (racemic) [Example 345, rac-(3R,4R)-4-[5-Cyclobutyl-2-(9H-pyrido[2,3-b]indol-4-yl)-pyrido[3,4-d]pyrimidin-4-ylamino]-piperidin-3-ol]
22 | < 100 nM | C[C@@H]1CNCC[C@H]1Nc1nc(-c2ccnc3[nH]c4ccccc4c23)nc2cncc(C3CCC3)c12 (racemic) [Example 346, [5-Cyclobutyl-2-(9H-pyrido[2,3-b]indol-4-yl)-pyrido[3,4-d]pyrimidin-4-yl]-(rac-(3R,4R)-3-methyl-piperidin-4-yl)-amine]
23 | < 100 nM | C[C@H]1CNCC[C@H]1Nc1nc(-c2ccnc3[nH]c4ccccc4c23)nc2cncc(C3CCC3)c12 (racemic) [Example 347, [5-Cyclobutyl-2-(9H-pyrido[2,3-b]indol-4-yl)-pyrido[3,4-d]pyrimidin-4-yl]-(rac-(3S,4R)-3-methyl-piperidin-4-yl)-amine]
24 | 100 to 1000 nM | O[C@H]1CNCC[C@H]1Nc1nc(-c2ccnc3[nH]c4ccccc4c23)nc2cncc(C(F)(F)F)c12 (racemic) [Example 349, rac-(3S,4R)-4-[2-(9H-Pyrido[2,3-b]indol-4-yl)-5-trifluoromethyl-pyrido[3,4-d]pyrimidin-4-ylamino]-piperidin-3-ol]
25 | < 100 nM | O[C@@H]1CNCC[C@H]1Nc1nc(-c2ccnc3[nH]c4ccccc4c23)nc2cncc(C(F)(F)F)c12 (racemic) [Example 350, rac-(3R,4R)-4-[2-(9H-Pyrido[2,3-b]indol-4-yl)-5-trifluoromethyl-pyrido[3,4-d]pyrimidin-4-ylamino]-piperidin-3-ol]
